Holding throughout (assay type): in vivo, human
The test system of test [1] is relapsing remitting multiple sclerosis patients. In words: Expanded Disability Status Scale (EDSS) change and disability progression. The settings on record: for Proportion of pts with progression at 24 months % (95% CI): EDSS progression sustained at least 6 months, Kaplan-Meier; for EDSS change at 24 months (median): within group comparison vs baseline, negative values indicate improvement. As for the experimental part: Standardized neurologic assessments, including an EDSS assessment, were performed at months 0, 3, 6, 12, 18 and 24, and at the time of a suspected relapse (as an additional unscheduled visit). EDSS assessments were performed by physicians who were trained either by in-person training or online (www.Neurostatus.net). MRI scans were obtained at screening and at months 0, 3, 6, 12 and 24. Subjects were seen or contacted every 3 months for compliance assessments and for dispensing medications.
Secondary efficacy end points included the proportion of subjects with a relapse over all 24 months, a change in PASAT cognitive testing, a sustained improvement in PASAT cognitive testing (as defined by an increase of at least 3 points sustained over at least 6 months), a change in EDSS scores from baseline, disability progression (as defined by an increase in EDSS of at least 1.0 point in subjects with a baseline score of 1.0 or higher, or by an increase of at least a 1.5 points in subjects with a baseline score of 0, each sustained for at least 6 months). Tertiary end points included gray matter atrophy on MRI.
For the time to first relapse analysis, Kaplan Meier curves and log-rank test were used to estimate and compare the relapse free probabilities of the two treatment groups. Cox proportional hazards model was used to compare the time to relapse free probabilities between two groups adjusting for covariates. The fixed effects include treatment groups (Estriol+GA vs Placebo+GA), baseline lesion number, age and baseline EDSS score. The random effect of subject is included in the model to account for within subject correlation.
Linear mixed effects model was carried out to compare the percent change in whole gray matter and cortical gray matter between treatment groups. For the exploratory endpoints of EDSS, PASAT, and brain volume measures, linear mixed effects model was used to compare treatment groups at 12 and 24 months. Linear mixed effects model was carried out to evaluate the association between PASAT change and percent brain volume change.

Test [2] has the same test system. As to the kind of experiment: Voxel-based morphometry (VBM) of gray matter loss. The settings on record: at 12 months; FDR P≤0.05; FIG. 9. As for the experimental part: Voxel-based morphometry (VBM) analyses were performed as described by Kurth et al. (Neuroimage Clin. 4:454 (2014)). All subjects included in the VBM cohort were required to have at least reached month 12 of the study, and all images had to pass quality control before and after image preprocessing to be included in the VBM cohort. Using this criteria, the VBM cohort consisted of Ill subjects (62 in the estriol+GA, and 49 in the placebo+GA group) from 13 sites for month 12 analyses, and 86 of these subjects (45 in the estriol+GA, and 41 in the placebo+GA group) for 24 month analyses.
Brain images were preprocessed utilizing SPM8 and the VBM8 toolbox. White matter lesions were in-painted to minimize their impact based on manual delineations that were used for the analysis of new T2 lesions. […]
For the statistical analysis, a general linear model was applied that used the smoothed gray matter segments as the dependent and group x time as the independent variable. […] Applying this model, the interaction between group and time was calculated using T-tests to investigate group differences in local gray matter changes between month 0 and month 12 (month 0 and month 24, respectively). […]

Test [3] shares this test system. As to the kind of experiment: 7/24 Spatial Recall Test, proportion with perfect score. As for the experimental part:
The estriol and placebo subjects were administered the 7/24 Spatial Recall Test periodically throughout the study. A perfect score on the test is 7, and for both treatment groups, the median score was also 7. Therefore, performance was assessed by the proportion of subjects in each group who achieved a perfect score on the test. […] Logistic regression for repeated measurement was used to compare the probability having a perfect score between the two treatment groups, adjusting for age, education level, and baseline recall (Table 7).

The test system is the same in test [4]. As to the kind of experiment: Delayed Recall Test, proportion with perfect score. As for the experimental part:
The estriol and placebo subjects were administered the Delayed Recall Test periodically throughout the study. A perfect score on the test is 7, and for both treatment groups, the median score was also 7. Therefore, performance was assessed by the proportion of subjects in each group who achieved a perfect score on the test. […] Logistic regression for repeated measurement was used to compare the probability having a perfect score between the two treatment groups, adjusting for age, education level, and baseline recall (Table 9).

Setting [5] is: logistic regression for repeated measurement, adjusted for age, education level, baseline recall.

In the case of glatiramer acetate [Placebo + GA], the “Proportion of pts with progression at 24 months % (95% CI)” value in test [1] is reported as 15.8 (8.8-27.6) %; in test [1] (listed as Placebo plus GA), 15.8%. Moreover, in test [1] (FIG. 6), the “EDSS scores over 24 months, slope” value is recorded as −0.01. For the same substance, the “EDSS change at 24 months (median)” value in test [1] is 0; in test [1] (listed as Copaxone® plus placebo) it was “no change”; in test [1] (listed as Placebo plus GA), “stable and unchanged”. For the same substance, the “voxel-wise gray matter loss as compared to baseline” value in test [2] is “significant localized gray matter loss”. In addition, the “voxel-wise gray matter loss, between group comparison” value in test [2] was “significantly more gray matter loss”. Also, the “Percentage of subjects achieving a perfect score on the 7/24 Spatial Recall Test” value in test [3] (Month 3) is 60.8 (45/74) %; in test [3] (Month 6) it was 73.2 (52/71) %; in test [3] (Month 12) it was 71.4 (45/63) %; in test [3] (Month 18), 63.6 (35/55) %; in test [3] (Month 24), 75.0 (42/56) %. Besides, the “7/24 Spatial Recall Test, Estimated perfect score rate (95% CI)” value in test [3] (setting [5]) is recorded as 69.8 (63.4, 75.5) %. For the same substance, the “Percentage of subjects achieving a perfect score on the Delayed Recall Test” value in test [4] (Month 3) is given as 65.9 (48/74) %; in test [4] (Month 6) it was 76.1 (54/71) %; in test [4] (Month 12) it was 69.8 (44/63) %; in test [4] (Month 18), 65.4 (36/55) %; in test [4] (Month 24) it was 75.0 (42/56) %. Besides, the “Delayed Recall Test, Estimated perfect score rate (95% CI)” value in test [4] (setting [5]) is 73.2 (65.7, 79.5) %.

The record behind these values is patent US10821117B2, “Estrogen therapy for brain gray matter atrophy and associated disability” (The Regents of the University of California, priority 2014, dated 2020).
